Experimental data reported in PMC6136360, “Novel group of tyrosyl-DNA-phosphodiesterase 1 inhibitors based on disaccharide nucleosides as drug prototypes for anti-cancer therapy” (Journal of Enzyme Inhibition and Medicinal Chemistry, 2018).

How the values were obtained:
TDP1 [1] = molecular target: T1, TDP1 (Homo sapiens, UniProt Q9NUW8); experiment: Steady-state kinetic analysis of TDP1 reaction, double-stranded (hairpin) substrate; format: biochemical; conditions: for Ki: Cornish-Bowden method, read-out: Inhibition constant, KI
T1 construct: made in house; host or cells: E. coli
Experimental: (§1) To determine the kinetic parameters: apparent maximum rate of enzymatic reaction (Vmax), Michaelis constant (KM), constant of inhibition (KI), and possible inhibition mechanism, steady-state kinetic experiments were carried out at five fixed concentrations of substrate with variation of inhibitor concentrations. The standard reaction mixtures (200 μl) contained 50 nM, 100 nM, 200 nM, 500 nM or 1000 nM substrate, testable inhibitor, 1.5 nM recombinant human TDP1 and reaction buffer components (50 mM Tris-HCl, pH 8.0, 50 mM NaCl, 7 mM β-mercaptoethanol). After addition of the enzyme, the reaction mixtures were incubated at a constant temperature of 26 °C and measured in a POLARstar OPTIMA fluorimeter, BMG LABTECH, GmbH, to measure fluorescence every 55 s (Ex485/Em520 nm) during the linear phase (data from 0 to 8 min). The initial data (kinetic curves) were obtained in three independent experiments and statistically processed in software OriginPro 8.6.0.
(§2) Values of the inhibition constant (KI) were determined using Cornish–Bowden method. Similar experiments were performed for all seven tested inhibitors on two types of DNA substrates, and the results are shown in Table 4.

TDP1 [2] = molecular target: T1, TDP1; experiment: Fluorescence anisotropy assay of TDP1-DNA substrate complex; format: binding; conditions: 3 nM single-strand oligonucleotide without quencher, 50 nM TDP1
Experimental: Fluorescence anisotropy was measured by using a fluorescent single-strand DNA-oligonucleotide (3 nM) without quencher at the 3′-end in the presence of the inhibitor in different concentrations (Fluorescein control, CFlu = 10^−9 M). Reaction mixtures (200 µl) contained TDP1 buffer (50 mM Tris-HCl, pH 8.0, 50 mM NaCl, 7 mM β-mercaptoethanol), a single-strand DNA-oligonucleotide without quencher (3 nM substrate of TDP1), a testable inhibitor and the purified TDP1 (50 nM). The reactions were incubated at a constant temperature of 26 °C in a POLARstar OPTIMA fluorimeter, BMG LABTECH, GmbH, to measure fluorescence anisotropy every 55 s (Ex482/Em530 nm) during the linear phase (from 0 to 8 min) in two independent experiments.
Fluorescence anisotropy (r) was calculated by using the Equation (1): (1) r = (III–I⊥)/(III+ 2I⊥)
The dependence of the anisotropy on the concentration of the inhibitor was determined using a six-point response curve in two independent experiments and calculated using MARS Data Analysis 2.0 (BMG LABTECH).
To obtain some information about interaction of disaccharide nucleosides with TDP1, anisotropy of the fluorescent DNA substrate was measured. We used single-stranded oligonucleotide without a quencher at the 3′-end in the presence of testable inhibitors at different concentrations.

[3] = system: A-549 cell line (adenocarcinomic human alveolar basal epithelial cells); experiment: MTT test, cytotoxicity and combination with topotecan, A-549; format: cell-based; conditions: A-549 cells; for Effect on cytotoxic effect of topotecan (in words): non-toxic inhibitor concentrations; for Synergistic coefficient (SC) with topotecan: MTT, inhibitor in combination with topotecan, SC < 1 indicates synergy
Experimental: (§3) Tumour cell line A549 (adenocarcinomic human alveolar basal epithelial cells) and noncancerous cell line WI-38 (fibroblasts derived from lung tissue of a 3 months gestation […] fetus) were used in cell-based experiments to determine the cytotoxicity of inhibitors and their effect on antitumour drug topotecan using standard MTT test[48]. Cells were incubated in Iscove’s Modified Dulbecco’s Medium (IMDM) supplemented with 10% fetal bovine serum and 40 µg/ml gentamicin, 10 U/ml penicillin, […], 0.25 µg/ml amphotericin at 37 °C and 5% CO2 for 24 h in a CO2 incubator; the optical density of the final solution was measured in the wells of the microplate at 570 nm and 620 nm wavelengths using a MultiScan FC (Thermo Scientific) microplate reader.
(§4) To study the effect of inhibitors on the cytotoxic effect of a well-known antitumour drug, the topotecan of the manufacturer “ACTAVIS GROUP PTC ehf.” was used. First of all, the 50% cytotoxic concentration (CC50) for topotecan and each inhibitor were determined to produce a defined single-agent effect. Second, three independent MTT-tests were performed with each inhibitor in combination with topotecan. Then, the synergistic coefficient (SC) was calculated according to the following formula (2)[49]: (2) SC= CC50 tpc,(+I)/CC50 tpc+CC50 I, (+tpc)/CC50 I,
(§5) CC50 tpc,(+I) and CC50 I,(+tpc) are the concentrations of topotecan and inhibitor used in combination to achieve 50% drug effect. CC50 tpc and CC50 I are the concentrations for single agents to achieve the same effect. SC values of less than, equal to, or more than 1 indicates synergy, additivity, and antagonism, respectively. The results were calculated and statistically processed in Microsoft Excel.

TDP1 [4] = molecular target: T1, TDP1; experiment: Steady-state kinetic analysis of TDP1 reaction, single-stranded substrate; format: biochemical; conditions: for Ki: Cornish-Bowden method, read-out: Inhibition constant, KI
Experimental: as §1
Vmax and KM decrease proportionally (Figure 6(A,B)), which corresponds to the uncompetitive type of inhibition, according to the general equation of the rate of product formation in the Michaelis–Menten kinetics.
as §2

[5] = molecular target: T2, SCAN1 (mutant form of TDP1 with H493R substitution) (Homo sapiens, UniProt Q9NUW8, H493R); experiment: Fluorescence real-time assay on mutant TDP1 (SCAN1), single-stranded oligonucleotide; format: biochemical
T2 construct: made in house; host or cells: E. coli
From the text: The recombinant tyrosyl-DNA phosphodiesterase 1 and the mutant form of TDP1 with substitution (H493R) were expressed in the E. coli system (plasmids pET16B-TDP1 and pET16B-SCAN1 were provided by Dr. K.W. Caldecott, University of Sussex, United Kingdom and by Dr. S. El-Khamisy, University of Sheffield, United Kingdom) and purified according to the previously described technique.
(§6) Conditions and details for our real-time detection of TDP1 activity using the single-stranded and hairpin fluorescent biosensors were reported in our previous work[47]. Briefly, the approach consists in fluorescence intensity measurement of the reaction of quencher removal from the fluorophore-quencher coupled DNA-oligonucleotide catalysed by TDP1 in the presence of inhibitor and in the absence of it (the control samples contained 1% DMSO). Reaction mixtures (200 µl) contained TDP1 buffer (50 mM Tris-HCl, pH 8.0, 50 mM NaCl, 7 mM β-mercaptoethanol), oligonucleotide (50 nM substrate of TDP1), testable inhibitor and purified TDP1 (1.5 nM). The reactions were incubated at a constant temperature of 26 °C in a POLARstar OPTIMA fluorimeter, BMG LABTECH, GmbH, to measure fluorescence every 55 s (Ex485/Em520 nm) during the linear phase (here data from 0 to 8 min). The average values of half maximal inhibitory concentration (IC50) were determined using an eleven-point concentration response curve in three independent experiments and calculated using MARS Data Analysis 2.0 (BMG LABTECH).
The IC50 values obtained by the fluorescence real-time assay on a single-stranded oligonucleotide (section 3.1) were higher than 100 μM.

[6] = system: WI-38 cell line (noncancerous fibroblasts derived from lung tissue); experiment: MTT test, cytotoxicity and combination with topotecan, WI-38; format: cell-based, human; conditions: WI-38 non-cancerous cell line
Experimental: as §3, §4, §5

TDP1 [7] = molecular target: T1, TDP1; experiment: Real-time fluorescence detection of TDP1 activity, single-stranded FAM/BHQ biosensor; format: biochemical; conditions: for Inhibitory effect on TDP1 activity (in words): single-stranded fluorescent biosensor, primary screening; for IC50: single-stranded fluorescent biosensor 50 nM, TDP1 1.5 nM, 26 °C, read-out: IC50 (half-maximal inhibitory concentration) of TDP1 activity
Experimental: as §6
To discover inhibitors of TDP1 we recently developed original single-stranded and hairpin fluorophore–quencher coupled DNA-biosensors for real-time measurement of TDP1 cleavage activity. The single-stranded substrate is a 16-mer oligonucleotide containing both 5′-FAM fluorophore donor and a quenching 3′-BHQ moiety (Figure 1(A)). When the quencher is removed by TDP1, the fluorescence intensity increases and can be measured by fluorimeter (TDP1 catalysed reaction on biosensor is shown in Figure 3(A). Fluorescence intensity declines in the presence of inhibitor, the resulting curves of the dependence of TDP1 residual activity as a function of the concentration of inhibitors were obtained using 4-parameter logistic regression fit, which was used to calculate IC50 values[47]^,[58].
For primary screening, the effect of a large group of disaccharide nucleosides and their hydrophobic derivatives on human recombinant TDP1 activity has been evaluated by fluorescent method on a single-stranded substrate described above.

[8] = Water solubility (qualitative); format: physicochemical

T1 sequence (Q9NUW8 whole entry): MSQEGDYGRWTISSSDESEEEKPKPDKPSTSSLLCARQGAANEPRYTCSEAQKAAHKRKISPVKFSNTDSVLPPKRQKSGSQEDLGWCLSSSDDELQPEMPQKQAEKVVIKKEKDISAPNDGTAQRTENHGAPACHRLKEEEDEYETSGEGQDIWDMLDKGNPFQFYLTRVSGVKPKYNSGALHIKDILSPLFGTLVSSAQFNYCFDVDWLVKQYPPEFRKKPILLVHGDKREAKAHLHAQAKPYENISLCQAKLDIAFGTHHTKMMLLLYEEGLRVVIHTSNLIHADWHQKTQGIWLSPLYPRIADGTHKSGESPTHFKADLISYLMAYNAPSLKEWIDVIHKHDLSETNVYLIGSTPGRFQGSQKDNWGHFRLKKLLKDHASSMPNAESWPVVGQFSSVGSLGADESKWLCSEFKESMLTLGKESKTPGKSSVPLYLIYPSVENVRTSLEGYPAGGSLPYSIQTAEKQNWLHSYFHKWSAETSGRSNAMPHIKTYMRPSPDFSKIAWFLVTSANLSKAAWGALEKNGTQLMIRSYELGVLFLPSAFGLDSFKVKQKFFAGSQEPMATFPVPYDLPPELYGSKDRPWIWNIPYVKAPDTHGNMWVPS
T2 sequence (Q9NUW8 whole entry H493R): as the sequence (Q9NUW8 whole entry) above, with H493R counted along it

Row | Type of inhibition (TDP1 [1]) | Ki (TDP1 [1]) | Change of fluorescence anisotropy with inhibitor concentration (TDP1 [2]) | Type of inhibition (TDP1 [4]) | Ki (TDP1 [4]) | IC50 [5] | Inhibitory effect on TDP1 activity (in words) (TDP1 [7]) | Water solubility (in words) [8] | IC50 (TDP1 [7]) | Structure (SMILES) | Effect on cytotoxic effect of topotecan (in words) [3] | Synergistic coefficient (SC) with topotecan [3] | Synergy with topotecan (in words) [6]
1 | Mixed | 300 ± 200 nM | significant decrease in the anisotropy | Mixed | 200 ± 100 nM | > 100000 nM | – | – | – | CC(C)C(=O)Nc1nc2c(ncn2[C@@H]2O[C@@H]3CO[Si](C(C)C)(C(C)C)O[Si](C(C)C)(C(C)C)O[C@H]3[C@H]2O[C@@H]2O[C@H](COC(=O)c3ccccc3)[C@@H](OC(=O)c3ccccc3)[C@H]2OC(=O)c2ccccc2)c(=O)[nH]1 [Compound 11] | significant increase of cytotoxic effect of topotecan | – | –
2 | Mixed | 400 ± 300 nM | significant decrease in the anisotropy | Mixed | 300 ± 200 nM | > 100000 nM | – | – | – | CC(C)[Si]1(C(C)C)OC[C@H]2O[C@@H](n3ccc(=O)[nH]c3=O)[C@H](O[C@@H]3O[C@H](COC(=O)c4ccccc4)[C@@H](OC(=O)c4ccccc4)[C@H]3OC(=O)c3ccccc3)[C@@H]2O[Si](C(C)C)(C(C)C)O1 [Compound 21] | significant increase of cytotoxic effect of topotecan | less than or equal to 0.7 | demonstrated synergy with topotecan
3 | – | – | – | – | – | – | low inhibitory effect | water-soluble | – | Nc1ncnc2c1ncn2[C@@H]1O[C@H](CO)[C@@H](O)[C@H]1O[C@@H]1O[C@H](COP(=O)([O-])[O-])[C@@H](O)[C@H]1O.[Na+].[Na+] [Compound 3] | – | – | –
4 | Mixed | 300 ± 100 nM | significant decrease in the anisotropy | Mixed | 900 ± 300 nM | > 100000 nM | – | – | – | Cc1cn([C@@H]2O[C@@H]3CO[Si](C(C)C)(C(C)C)O[Si](C(C)C)(C(C)C)O[C@H]3[C@H]2O[C@@H]2O[C@H](COC(=O)c3ccccc3)[C@@H](OC(=O)c3ccccc3)[C@H]2OC(=O)c2ccccc2)c(=O)[nH]c1=O [Compound 7] | significant increase of cytotoxic effect of topotecan | less than or equal to 0.7 | –
5 | Mixed | 200 ± 100 nM | significant decrease in the anisotropy | Mixed | 300 ± 100 nM | > 100000 nM | – | – | 1300 ± 200 nM | CC(C)[Si]1(C(C)C)OC[C@H]2O[C@@H](n3cnc4c(NC(=O)c5ccccc5)ncnc43)[C@H](O[C@@H]3O[C@H](COC(=O)c4ccccc4)[C@@H](OC(=O)c4ccccc4)[C@H]3OC(=O)c3ccccc3)[C@@H]2O[Si](C(C)C)(C(C)C)O1 [Compound 4] | significant increase of cytotoxic effect of topotecan | less than or equal to 0.7 | –
6 | Noncompetitive | 8800 ± 900 nM | anisotropy remained unchanged | Noncompetitive | 7900 ± 800 nM | > 100000 nM | – | high water solubility | 18500 ± 800 nM | Cc1cn([C@@H]2O[C@H](COP(=O)([O-])[O-])[C@@H](O)[C@H]2O[C@@H]2O[C@H](CO)[C@@H](O)[C@H]2O)c(=O)[nH]c1=O.[Na+].[Na+] [Compound 6] | significant increase of cytotoxic effect of topotecan | – | –
7 | – | – | – | – | – | – | not active at all | water-soluble | – | Nc1nc2c(ncn2[C@@H]2O[C@H](CO)[C@@H](O)[C@H]2O[C@@H]2O[C@H](COP(=O)([O-])[O-])[C@@H](O)[C@H]2O)c(=O)[nH]1.[Na+].[Na+] [Compound 9] | – | – | –
